Data: patent US20260198495A1, “BINARY INSECTICIDE COMPOSITION AND USE THEREOF” (SHENYANG SINOCHEM AGROCHEMICALS R & D CO., LTD., priority 2022, published 2026)

Experiments:
Assay type in all cases: in vivo
[1] = tested on: Thrips flavus Schrank nymphs; test: Joint toxicity of I-72 + spirotetramat, Example 26, Table 26; settings: A = compound I-72, B = spirotetramat, eggplant seedling spraying, 48 hours, read-out: LC50
Protocol: Test target: Thrips flavus Schrank nymphs.
(§1) Preparation of the pesticide solution: according to different test requirements, the test samples were accurately weighed respectively with an electronic analytical balance. The technical pesticides were dissolved in acetone, and then diluted with 0.1% Tween 80 water into a series of pesticide solutions with a certain concentration gradient according to the experimental design dosage.
Experimental method: first, eggplant seedlings with Thrips flavus Schrank were selected, and the base number was counted. Then, uniform spraying was performed with the pesticide solution in the order from low to high doses according to the experimental design, with 2 mL for each seedling and 3 replicates for each treatment. In addition, a blank control was set up.
(§2) The treated test materials were placed in an observation room, and the temperature, humidity and illumination of the observation room could be adjusted as needed. The number of dead and live insects was investigated 48 hours later. […] Then, the co-toxicity coefficient of each ratio was calculated using the Sun Y-P method to evaluate the mixing effect (the same as in Example 1).

[2] = tested on: 2nd-instar larvae of Chilo suppressalis (Walker); test: Joint toxicity of I-72 + abamectin, rice stalk spraying, Example 7, Table 7; settings: Chilo suppressalis, resistant 2nd-instar larvae, 72 h, A = compound I-72, B = abamectin, read-out: LC50
Protocol: Test target: 2nd-instar larvae of Chilo suppressalis (Walker). The insect source was collected from Nanchang, Jiangxi Province, and it is the 11th generation continuously cultured indoors, with a relatively high resistance level to amide pesticides such as chlorantraniliprole.
Test conditions: temperature: 25-27° C., humidity: RH 60%, and illumination: L:D=14:10
Preparation method: the test pesticides were accurately weighed respectively with an electronic analytical balance. After the two technical materials were respectively added into an appropriate amount of solvent and completely dissolved, the stock solution of the required concentration was prepared with water containing 0.1% Tween 80. The stock solutions of the two active ingredients were mixed in a certain ratio to prepare a mixed solution, which was then diluted respectively into a series of pesticide solutions with a certain concentration gradient according to the experimental design dosage.
Experimental method: the spraying method was adopted. […] The corrected mortality rate was calculated using the Abbott's formula, and the DPS data processing software was used for statistical analysis to calculate the toxicities (LC50 values) of the single test pesticides and the mixtures under the test ratios. […]

[3] = tested on: Frankliniella occidentalis Pergande; test: Joint toxicity of I-72 + organophosphorus insecticides, leaf dipping, Example 14, Table 14; settings: foliar, kidney bean leaf dipping, 48 h, A = compound I-72, B = triazophos, read-out: LC50
Description: Test target: Frankliniella occidentalis Pergande, a sensitive strain reared indoors.
Experimental method: first, kidney bean leaves were selected and dipped in the prepared pesticide solution for 10 s in the order from low dosage to high dosage according to the experimental design. After natural air-drying in the shade, they were placed in a 9-cm-diameter Petri dish with filter paper, and uniform and healthy test insects were introduced, with about 20 insects for each treatment and 3 replicates for each treatment. In addition, a blank control was set up.

[4] = tested on: mixed aphids of Myzus persicae (Sulzer); test: Joint toxicity of I-72 + matrine, Example 34, Table 34; settings: A = compound I-72, B = matrine, spraying on cabbage leaves with aphids, 48 hours, read-out: LC50
Description: Test subject: mixed aphids of Myzus persicae (Sulzer), a sensitive strain reared indoors.
Experimental method: the spraying method on leaves with aphids was adopted. Cabbage leaves with a certain number of Myzus persicae (Sulzer) were taken. The prepared pesticide solutions were evenly sprayed on both the front and back sides of the leaves in the order from low concentration to high concentration according to the experimental design. Then, the leaves were placed in a 6-cm-diameter Petri dish with filter paper. After natural air-drying in the shade, they were placed in the observation room. The experiment had 3 replicates set, and in addition, a blank control was set up. The number of dead and live insects was investigated 48 hours later. The corrected mortality rate was calculated using the Abbott's formula, and the DPS data processing software was used for statistical analysis to calculate the toxicities (LC50 values) of the single test pesticides and the mixtures under the test ratios.
The test conditions, the preparation of the pesticide solution and the evaluation method were the same as those in Example 1.

[5] = tested on: adult Tetranychus urticae Koch; test: Joint toxicity of I-72 + cyetpyrafen, Example 85, Table 85; settings: Tetranychus urticae; A = compound I72, B = cyetpyrafen; potted-seedling spraying; 72 hours; read-out: LC50
Protocol: Test target: adult Tetranychus urticae Koch, a sensitive strain reared indoors.
as §1
Experimental method: the activity of the mixture against the adult Tetranychus urticae Koch was determined by adopting the potted-seedling spraying method. First, the adult Tetranychus urticae Koch of uniform size were transferred onto the leaves of kidney bean seedlings at the stage when the first pair of true leaves was fully expanded. After the adult mites had stabilized, the base number was counted. Then, the uniform spraying was performed with the pesticide solution in the order from low to high dose according to the experimental design, with 1.5 mL for each seedling and 3 replicates for each treatment. […]
as §2, with “needed.” for “needed. The number of dead and live insects was investigated 48 hours later.”

Cnaphalocrocis medinalis = test: Field efficacy trial of I-72 and Bacillus thuringiensis on rice, Example 86, Table 86; settings: 20 days after application
Protocol: This trial was arranged in the suburban area of Jurong City, Jiangsu Province. The conventional spraying method was adopted in the trial. The investigation method was to take samples at 5 points, and a total of 25 clusters of rice were investigated. The investigation was performed 20 days after the pesticide application. By comparing with the leaf rolling rate in the control plot, the relative control efficacy was calculated. The amount of water used per mu was 45 L.
The test pesticides were as follows: A: 8000 IU/μL Bacillus thuringiensis suspension (produced by Qingdao Audis Biotechnology Co., Ltd. of Shandong), and B: compound I-72 (dissolved in acetone, 0.1% Tween 80 was added, and a 10% stock solution was prepared for use).
[formula] [formula] • in the formula, CK is the leaf rolling rate in the blank control plot after the pesticide application

## CN(C(=O)c1ccc2c(c1)OC(F)(F)O2)c1cccc(C(=O)Nc2c(Br)cc(C(F)(C(F)(F)F)C(F)(F)F)cc2OC(F)F)c1F [Compound I-72]
[1]
  LC50: 2.04 µg/mL
[2]
  LC50: 0.811 µg/mL
[3]
  LC50: 3.13 µg/mL
[4]
  LC50: 6.36 µg/mL
[5]
  LC50: 40.4 µg/mL
Cnaphalocrocis medinalis; dose 9 ml per mu
  Control efficacy: 79.6%
  Leaf rolling rate: 8.6%
Cnaphalocrocis medinalis; dose 11.25 ml per mu
  Control efficacy: 85.0%
  Leaf rolling rate: 6.3%
Cnaphalocrocis medinalis; dose 13.5 ml per mu
  Control efficacy: 86.8%
  Leaf rolling rate: 5.6%
